Test results reported in US7026339B2, “Inhibitors of HCV NS5B polymerase” (priority 2003, dated 2006).
pIC50: −log10 of the molar value.

Test system: HuH-7 replicon cells 5–15 and 9–13 (HCV replication)
Experiment: Inhibition of viral replication in HuH-7 replicon cells (HCV RNA / GAPDH RNA by multiplex RT-PCR)
Format: cell-based
Conditions: Hepatitis C virus, 72 h; inhibiting 50% of replication; HuH-7 replicon cells, 3 days; read-out: IC50
Procedure: Compounds were evaluated for inhibition of viral replication according to published procedures (Bartenschlager, R., et. al., Science, 1999, 285, 110) with modifications as follows.
HuH-7 replicon cells 5–15 and 9–13 were cultured in Dulbecco's minimal essential medium (DMEM) containing high glucose and supplemented with 10% fetal bovine serum (FBS), L-glutamine (2 mM), non-essential amino acids (1×), Penicillin (100 IU/mL)/Streptomycin (100 μg/mL) and G418 (Geneticin, 750 μg/mL). Unless otherwise specified, all media components were obtained from Invitrogen. Replicon cell line stocks were maintained as sub-confluent monolayers by passaging every Monday (1:6 split) and Thursday (1:10 split) and incubated at 37° C. with 5% CO2. Tissue culture plates (96-well white clear bottom plates, Corning #3610) were seeded at 7×10^3 cells/well and incubated for 24 hours prior to addition of the compounds.
Compounds in dry powder form were diluted in DMSO (30 mM stock). Serial dilutions of each Compound in DMSO (10 mM–0.1 mM) were performed in a 96-well polypropylene plate using a microtiter format. Culture media (200 μl) was added to the corresponding wells of a sterile 96-well round bottom plate. Diluted compound (2 μl) was added to the corresponding wells of the medial plate (final compound concentrations: 100 μM–1 μM). Culture media was removed from the corresponding wells of the 96-well plate containing the replicon cells and 150 μl diluted compound added. Media containing 1% DMSO and a serially diluted IFN were included on each plate. The cultures were incubated at 37° C. with 5% CO2 for 3 days. Cultures were observed visually for cytotoxicity or compound precipitation prior to RNA extraction described below.
Total cellular RNA was extracted by spin column technology (RNeasy 96, Qiagen) using the vacuum methodology according to the manufacturer's protocol. In brief, culture media was removed and 100 μl RLT lysis buffer containing 0.14M β-mercaptoethanol (β-ME) was added to each well. The plate was kept flat on the laboratory bench and shaken vigorously to lyse the cells. An equal volume of 70% ETOH was mixed with the lysate and added to the corresponding columns of the RNeasy 96-well plate. Vacuum was applied to draw the lysate through the filters. After ventilating the plate, buffer RW1 (1 mL) was drawn through each column. The waste tray was emptied and the filters washed twice with buffer RPE (1 mL/wash). After ventilating the tray, the RNeasy plate was removed and the bottom of the plate struck several times on a stack of paper towels to remove excess wash buffer. The waste tray was removed from the vacuum apparatus and the RNeasy 96-well plate dried by applying vacuum for 10 minutes. Total cellular RNA was eluted from the columns with two washes of 60 μl RNase-free water.
Relative quantitative multiplex RT-PCR was performed using TaqMan (TM) EZ RT Core Reagent kit (Perkin Elmer) according to the manufacturer's protocol (PE Applied Biosystems User Bulletin #2). Primer 061 (NT 61–82) and 139 (NT 139–158) amplifying a short region in the 5′ untranslated region of the HCV genome were utilized at 300 nM final concentrations. Probe #3 (NT 97–119) labeled with FAM reporter dye was utilized at 200 nM final concentration. Pre-developed human GAPDH primers and probe labeled with VIC reporter dye were obtained from PE Applied Biosystems (# 4310884E) and used according to the manufacturer's protocol. TM RT-PCR master mix was prepared containing the above primers/probe for both target RNA. Total cellular RNA (2 μl) was added to the reaction tubes of a 96-well optical plate that corresponded to the wells of the replicon culture plate. The final volume of each reaction was 50 μl. A standard curve was prepared from ten-fold serial dilutions of total cellular RNA extracated from 10^6 replicon cells and eluted in 30 μl RNase-free water. […]

`O=C(Cc1c(F)ccc(F)c1F)N/N=C/c1ccccc1OS(=O)(=O)c1ccc(C(F)(F)F)cc1` [Compound 27, 2-((E)-{2-[2-(2,3,6-trifluorophenyl)acetyl]hydrazono}methyl)-phenyl 4-(trifluoromethyl)benzenesulfonate] and `O=C(Cc1c(F)cccc1F)N/N=C/c1ccccc1OS(=O)(=O)c1ccc(C(F)(F)F)cc1` [Compound 28, 2-((E)-{2-[2-(2,6-difluorophenyl)acetyl]hydrazono}methyl)-phenyl 4-(trifluoromethyl)benzenesulfonate] cannot be ordered by pIC50: greater than 5.30 for the first, greater than 5.30 for the second.

`O=C(Cc1ccccn1)N/N=C/c1ccccc1OS(=O)(=O)c1ccc(C(F)(F)F)cc1` [Compound 29, 2-{(E)-[2-(2-pyridin-2-ylacetyl)hydrazono]methyl}phenyl 4-(trifluoromethyl)benzenesulfonate] and `O=C(Cc1ccccc1Br)N/N=C/c1ccccc1OS(=O)(=O)c1ccc(C(F)(F)F)cc1` [Compound 40, 2-((E)-{2-[2-(2-bromophenyl)acetyl]hydrazono}methyl)-phenyl 4-(trifluoromethyl)benzenesulfonate] cannot be ordered by pIC50: greater than 5.30 for the first, greater than 5.30 for the second.

First: O=C(CCc1cccnc1)N/N=C/c1ccccc1OS(=O)(=O)c1ccc(C(F)(F)F)cc1 [Compound 30, 2-{(E)-[2-(3-pyridin-3-ylpropanoyl)hydrazono]methyl}phenyl 4-(trifluoromethyl)benzenesulfonate]
Second: O=C(CCCc1ccccc1)N/N=C/c1ccccc1OS(=O)(=O)c1ccc(C(F)(F)F)cc1 [Compound 46, 2-{(E)-[2-(4-phenylbutanoyl)hydrazono]methyl}phenyl4-(trifluoromethyl)benzenesulfonate]
The pIC50 of the first is higher: greater than 5.30 for the first, 4.30 to 5.30 for the second.

`O=C(Cc1cc(F)ccc1F)N/N=C/c1ccccc1OS(=O)(=O)c1ccc(C(F)(F)F)cc1` [Compound 31, 2-((E)-{2-[2-(2,5-difluorophenyl)acetyl]hydrazono}methyl)-phenyl 4-(trifluoromethyl)benzenesulfonate] and `O=C(Cc1ccccc1F)N/N=C/c1ccccc1OS(=O)(=O)c1ccc(C(F)(F)F)cc1` [Compound 41, 2-((E)-{2-[2-(2-fluorophenyl)acetyl]hydrazono}methyl)-phenyl 4-(trifluoromethyl)benzenesulfonate] cannot be ordered by pIC50: greater than 5.30 for the first, greater than 5.30 for the second.

`O=C(Cc1cc(C(F)(F)F)ccc1C(F)(F)F)N/N=C/c1ccccc1OS(=O)(=O)c1ccc(C(F)(F)F)cc1` [Compound 32, 2-[(E)-(2-{2-[2,5-bis(trifluoromethyl)phenyl]acetyl}hydrazono)-methyl]phenyl 4-(trifluoromethyl)benzenesulfonate] and `O=C(Cc1cc(C(F)(F)F)cc(C(F)(F)F)c1)N/N=C/c1ccccc1OS(=O)(=O)c1ccc(C(F)(F)F)cc1` [Compound 39, 2-[(E)-(2-{2-[3,5-bis(trifluoromethyl)phenyl]acetyl}hydrazono)-methyl]phenyl 4-(trifluoromethyl)benzenesulfonate] cannot be ordered by pIC50: greater than 5.30 for the first, greater than 5.30 for the second.

`O=C(Cc1c(F)cccc1C(F)(F)F)N/N=C/c1ccccc1OS(=O)(=O)c1ccc(C(F)(F)F)cc1` [Compound 33, 2-[(E)-(2-{2-[2-fluoro-6-(trifluoromethyl)phenyl]acetyl}hydrazono)-methyl]phenyl 4-(trifluoromethyl)benzenesulfonate] and `O=C(Cc1cccc(C(F)(F)F)c1)N/N=C/c1ccccc1OS(=O)(=O)c1ccc(C(F)(F)F)cc1` [Compound 35, 2-[(E)-(2-{2-[3-(trifluoromethyl)phenyl]acetyl}hydrazono)-methyl]phenyl 4-(trifluoromethyl)benzenesulfonate] cannot be ordered by pIC50: greater than 5.30 for the first, greater than 5.30 for the second.

`O=C(Cc1ccc(C(F)(F)F)cc1)N/N=C/c1ccccc1OS(=O)(=O)c1ccc(C(F)(F)F)cc1` [Compound 34, 2-[(E)-(2-{2-[4-(trifluoromethyl)phenyl]acetyl}hydrazono)-methyl]phenyl 4-(trifluoromethyl)benzenesulfonate] and `O=C(Cc1ccc(Br)cc1)N/N=C/c1ccccc1OS(=O)(=O)c1ccc(C(F)(F)F)cc1` [Compound 52, 2-((E)-{2-[2-(4-bromophenyl)acetyl]hydrazono}methyl)-phenyl 4-(trifluoromethyl)benzenesulfonate] cannot be ordered by pIC50: greater than 5.30 for the first, greater than 5.30 for the second.

First: COc1ccccc1CC(=O)N/N=C/c1ccccc1OS(=O)(=O)c1ccc(C(F)(F)F)cc1 [Compound 36, 2-((E)-{2-[2-(2-methoxyphenyl)acetyl]hydrazono}methyl)-phenyl 4-(trifluoromethyl)benzenesulfonate]
Second: Cc1ccccc1CC(=O)N/N=C/c1ccccc1OS(=O)(=O)c1ccc(C(F)(F)F)cc1 [Compound 42, 2-((E)-{-[2-(2-methylphenyl)acetyl]hydrazono}methyl)-phenyl 4-(trifluoromethyl)benzenesulfonate]
The pIC50 of the first is lower: 4.30 to 5.30 for the first, greater than 5.30 for the second. The second is the more potent here.

`COc1ccc(OC)c(CC(=O)N/N=C/c2ccccc2OS(=O)(=O)c2ccc(C(F)(F)F)cc2)c1` [Compound 37, 2-((E)-{2-[2-(2,5-dimethoxyphenyl)acetyl]hydrazono}methyl)-phenyl 4-(trifluoromethyl)benzenesulfonate] and `COc1ccc(CC(=O)N/N=C/c2ccccc2OS(=O)(=O)c2ccc(C(F)(F)F)cc2)c(OC)c1` [Compound 51, 2-((E)-{2-[2-(2,4-dimethoxyphenyl)acetyl]hydrazono}methyl)-phenyl 4-(trifluoromethyl)benzenesulfonate] cannot be ordered by pIC50: greater than 5.30 for the first, greater than 5.30 for the second.

`O=C(Cc1ccc(Cl)c(Cl)c1)N/N=C/c1ccccc1OS(=O)(=O)c1ccc(C(F)(F)F)cc1` [Compound 38, 2-((E)-{2-[2-(3,4-dichlorophenyl)acetyl]hydrazono}methyl)-phenyl 4-(trifluoromethyl)benzenesulfonate] and `O=C(Cc1cccc(F)c1)N/N=C/c1ccccc1OS(=O)(=O)c1ccc(C(F)(F)F)cc1` [Compound 48, 2-((E)-{2-[2-(3-fluorophenyl)acetyl]hydrazono}methyl)-phenyl 4-(trifluoromethyl)benzenesulfonate] cannot be ordered by pIC50: greater than 5.30 for the first, greater than 5.30 for the second.

`O=C(Cc1ccc2c(c1)OCO2)N/N=C/c1ccccc1OS(=O)(=O)c1ccc(C(F)(F)F)cc1` [Compound 43, 2-((E)-{2-[2-(1,3-benzodioxol-5-yl)acetyl]hydrazono}methyl)phenyl 4-(trifluoromethyl)benzenesulfonate] and `COc1ccc(CC(=O)N/N=C/c2ccccc2OS(=O)(=O)c2ccc(C(F)(F)F)cc2)cc1` [Compound 44, 2-((E)-{2-[2-(4-methoxyphenyl)acetyl]hydrazono}methyl)-phenyl 4-(trifluoromethyl)benzenesulfonate] cannot be ordered by pIC50: greater than 5.30 for the first, greater than 5.30 for the second.

First: O=C(CC1CCCCC1)N/N=C/c1ccccc1OS(=O)(=O)c1ccc(C(F)(F)F)cc1 [Compound 45, 2-{(E)-[2-(2-cyclohexylacetyl)hydrazono]methyl}phenyl4-(trifluoromethyl)benzenesulfonate]
Second: O=C(CCCCc1ccccc1)N/N=C/c1ccccc1OS(=O)(=O)c1ccc(C(F)(F)F)cc1 [Compound 47, 2-{(E)-[2-(5-phenylpentanoyl)hydrazono]methyl}phenyl4-(trifluoromethyl)benzenesulfonate]
The pIC50 of the first is higher: greater than 5.30 for the first, 4.30 to 5.30 for the second. The first is the more potent here.

First: COc1ccc2[nH]cc(CC(=O)N/N=C/c3ccccc3OS(=O)(=O)c3ccc(C(F)(F)F)cc3)c2c1 [Compound 49, 2-((E)-{2-[2-(5-methoxy-1H-indol-3-yl)acetyl]hydrazono}methyl)phenyl 4-(trifluoromethyl)benzenesulfonate]
Second: COc1cc(CC(=O)N/N=C/c2ccccc2OS(=O)(=O)c2ccc(C(F)(F)F)cc2)cc(OC)c1 [Compound 50, 2-((E)-{2-[2-(3,5-dimethoxyphenyl)acetyl]hydrazono}methyl)-phenyl 4-(trifluoromethyl)benzenesulfonate]
The pIC50 of the first is lower: 4.30 to 5.30 for the first, greater than 5.30 for the second.
